Molecules are shown by their SMILES. Like-named read-outs stand apart in the source and are kept apart here.

The test system of one series is osteosarcoma HOS cells. In words: MTT proliferation assay, 96 h. Particulars: proliferation, 10% FBS, read-out: IC50 (µM ± SD) HOS. Type of series: cell-based, human. How it is done: (§1) One of the features specific totumor cells is the unlimited potential for proliferation. […] To this end, the assay conditions were established suchthat they encourage the proliferation of OS cells, i.e., the cell cultures at low density were incubated with compounds diluted in the growth medium (10% FBS) for an extended time of 96 h. Additionally, cisplatin, i.e., a common cytostatic used in osteosarcoma treatment, was included as a positive control in this study. Moreover, since the new generation of anti-cancer compounds is highly desired to be inert (non-cytotoxic) towards normal cells, the influence of compounds 1–7 on the viability of human normal cells (osteoblasts hFOB 1.19 and colon fibroblasts CCD-18Co) was also determined.To this end, the assay conditions were established such that they restrict the proliferation of OS cells and to establish whether the compounds have cytotoxic potential, i.e., the cell cultures were incubated with compounds diluted in the medium with a reduced concentration of FBS (2%) for a shortened time of 24 h. […] However, this activity varied depending on both the types of the compounds and the osteosarcoma cell lines (Table 4).
(§2) The anti-proliferative activity of compounds 1–7 against the HOS and Saos-2 osteosarcoma cells and the viability of the human normal hFOB 1.19 and CCD-18Co cells were screened by means of the MTT method. This method is commonly used to assess cell viability and proliferation or to determine the cytotoxicity of any compounds. It is a reliable method for this purpose because it is based on measurement of the level reduction in MTT dye to formazan byNAD(P)H-dependent oxidoreductase enzymes of metabolically active cells.
(§3) To assess the anti-proliferative activity of compounds 1–7 against the HOS and Saos-2 osteosarcoma cells, 3.0 × 10^4 cells/mLseeded (low density culture) into 96-well plates (Nunc, Roskilde, Denmark) were incubated with each compound at concentrations of 3.125, 6.25, 12.5, 25, 50, 100 and 200 µM prepared in medium with 10% FBS (growth medium) for 96 h. Additionally, cisplatin (Sigma Aldrich), i.e., a common cytostatic used in osteosarcoma treatment, was included as a positive control in this study. It was tested in the same conditions as compounds 1–7. The negative control was constituted by the untreated cells (0 µM). Next, the MTT assay was carried out as described previously.
(§4) The results of these assays were calculated as a percent of the untreated cells (100%; control). Then, the IC50 (concentration resulting in 50% inhibition of proliferation) and CC50 (concentration resulting in a 50% decrease in viability) values were calculated from a non-linear regression (log(inhibitor) vs. normalized response-variable slope) using GraphPad Prism 5.0 (GraphPAD Software Inc., San Diego, CA, USA). The IC50 and CC50 results were presented as themean ± SD of at least three experiments. In the case of the BrdU assay, the results were presented as a percent of untreated cells (100%; control).
In general terms: Formazan colour is commonly taken as a measure of viable cells.

For series [1], the system named is osteosarcoma Saos-2 cells. In words: MTT proliferation assay, 96 h. Type of series: cell-based, human. As to conditions: MTT, 10% FBS, read-out: IC50 (µM ± SD) Saos-2. The protocol: as §1, §2, §3, §4
Series [2] in a line: MTT viability assay, 24 h. Format: cell-based. Particulars: human, 2% FBS. How it is done: as §1, §2
To assess the viability of human normal cells, confluent hFOB 1.19 (3 × 10^5 cells/mL) and CCD-18Co (1 × 10^5 cells/mL) cells seeded in 96-well plates (Nunc) were incubated with compounds 1–7 at concentrations of 3.125, 6.25, 12.5, 25, 50, 100 and 200 µM prepared in medium with 2% FBS (maintaining medium) for 24 h. The control was constituted by the untreated cells (0 µM). Next, the MTT assay was carried out as described previously.
as §4

The test system of series [3] is active caspase 3 in HOS cells. In words: Active caspase 3 assay (flow cytometry). As to conditions: 3.5 µM (IC50 concentration), 72 h. Type of series: cell-based, human. How it is done:
(§5) The level of active executor caspase 3 and initiator caspase 9 was determined to examine whether compounds 4 and 6 induced apoptosis in the HOS and Saos-2 cells. The influence of compounds 4 and 6 on HOS and Saos-2 were determined with the caspase 3 assay, whereas the influence of compound 6 on the HOS cells was investigated with the caspase 9 assay. In both assays, the osteosarcoma cells (3.0 × 10^5 cells/mL) were seeded in 6-well plates. The cells were treated with compounds 4 and 6 at concentrations of 12.5, 25, 50 µM and 20, 40, 80 µM as well as 15, 30, 60 µM and 21.25, 42.5, 85 µM for 72 h, respectively. The solutions of the compounds were prepared in a medium with 2% FBS. […] Next, floating and adherent cells were harvested and subjected to further steps of the staining procedures according to the manufacturer’s instruction. The level of active caspase 3 and caspase 9 was determined using the PE Active Caspase-3 Apoptosis Kit (BD Pharmingen^TM) and the CaspaTag^TM Caspase-9 in Situ Assay Kit (Millipore, Darmstadt, Germany), respectively. The number of stained cells (active caspase 3- or 9-positive cells) was measured using FACS Calibur, and the obtained data were analyzed using Cell Quest Pro Version 6.0. for the Macintosh operating system (BD Pharmingen™). The presented results were calculated as a percent of cells with either active caspase 3 or 9 among all the analyzed cells.

For series [4], the system named is active caspase 3 in Saos-2 cells. As to the kind of experiment: Active caspase 3 assay (flow cytometry). Format: cell-based, human. Particulars: Saos-2, 12.5 µM (IC50 concentration), 72 h. The protocol:
as §5
(A flow cytometer gives signals particle by particle.)

Series [5] relates to active caspase 9 in HOS cells. As to the kind of experiment: Active caspase 9 assay (flow cytometry). Format: cell-based, human. As to conditions: 3.5 µM (IC50 concentration), 72 h. The protocol:
as §5

The target in a further series is T1, NEP (neprilysin) (Homo sapiens, UniProt P08473).
T1 construct: purchased BioVision, Waltham, MA, USA
T1 sequence (P08473 whole entry): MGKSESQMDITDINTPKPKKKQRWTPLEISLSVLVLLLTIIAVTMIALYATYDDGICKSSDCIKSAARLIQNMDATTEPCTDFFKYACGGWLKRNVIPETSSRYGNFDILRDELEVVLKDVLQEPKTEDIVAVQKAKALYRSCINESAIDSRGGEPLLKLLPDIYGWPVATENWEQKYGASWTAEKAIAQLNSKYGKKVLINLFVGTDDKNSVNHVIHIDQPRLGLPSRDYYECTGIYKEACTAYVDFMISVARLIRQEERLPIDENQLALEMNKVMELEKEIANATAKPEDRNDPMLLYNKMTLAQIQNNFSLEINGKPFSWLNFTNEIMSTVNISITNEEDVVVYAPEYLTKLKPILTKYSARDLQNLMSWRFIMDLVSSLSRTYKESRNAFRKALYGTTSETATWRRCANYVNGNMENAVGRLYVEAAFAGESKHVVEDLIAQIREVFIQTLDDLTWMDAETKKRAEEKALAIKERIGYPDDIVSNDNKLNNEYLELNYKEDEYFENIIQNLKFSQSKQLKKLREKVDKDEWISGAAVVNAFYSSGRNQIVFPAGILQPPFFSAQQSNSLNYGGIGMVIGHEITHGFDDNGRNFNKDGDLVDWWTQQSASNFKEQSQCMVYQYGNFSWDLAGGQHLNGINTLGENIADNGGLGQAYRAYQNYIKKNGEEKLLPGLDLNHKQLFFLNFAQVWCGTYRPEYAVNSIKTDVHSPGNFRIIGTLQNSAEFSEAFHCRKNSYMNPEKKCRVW
As to the kind of experiment: Neutral endopeptidase activity assay (fluorometric). Format: biochemical. The protocol: The NEP activity in the presence of compounds 4 and 6 was determined using the Neprilysin Activity Assay Kit (BioVision, Waltham, MA, USA) according to the manufacturer’s instructions. The measurement is based on the ability of active neprilysin to cleave a synthetic substrate (Abz-based peptide) to release a fluorophore, which can be easily quantified using a fluorescence microplate reader. Briefly, pure neprilysin (5µLof stock solution) was incubated with solutions of the tested compounds (at least 4 concentrations in the range of 0.01–50 µM) for 10 min at 37 °C. The reaction was started by adding the substrate solution, and the final sample volume was 100µL. Fluorescence was measured (Ex/Em = 330/430nm) in the kinetic mode at 37 °C for 1–2 h. The same procedure was used to measure the control and background sample. Thiorphan was used as a reference NEP inhibitor. NEP activity was determined with the prepared Abz standard curve and expressed in µU/mL. The experiments were performed at least in triplicates, and the graphs represent mean ±SD values.

The next series relates to HOS cells. In words: BrdU proliferation assay, 96 h. Type of series: cell-based, human. Particulars: for decrease in proliferation: 96 h. The protocol: (§6) In the study on the implication of NEP in the anti-proliferative activity of compound 4, cell proliferation was determined with the BrdU assay. Cell cultures were prepared as described above. Depending on the requirements, the HOS and Saos-2 cells were treated with non-cytotoxic concentrations of the NEP inhibitor—thiorphan (1, 5, 20, 100, 200, 500 µM) or pre-treated with thiorphan (100 µM) for 1 h. In this scheme, compound 4 (HOS—25 µM; Saos-2—60 µM) was added alone or in combination with the NEP inhibitor into the cell cultures. Finally, cell proliferation was evaluated with the BrdU Cell Proliferation Assay according to the manufacturer’s instructions (Millipore, Darmstadt, Germany) after a 96-h incubation.
as §4

For the next series, the system named is Saos-2 cells. In words: BrdU proliferation assay, 96 h. Format: cell-based, human. Particulars: for decrease in proliferation: 96 h. How it is done:
as §6, §4

Setting [6] is: Homo sapiens, SAOS-2, proliferation.
Where [7] appears, read: normal osteoblasts hFOB 1.19 cells, read-out: CC50 (µM ± SD) hFOB 1.19.

For orientation: IC50 means the concentration at which inhibition is half-maximal. A word on the CC50: it is the concentration giving 50% cytotoxicity. With `[BH3-][P+](Cc1ccccc1)(OC(C)C)OC(C)C` [Compound 1, benzylphosphonous acid-borane diisopropyl ester], the IC50 amounted to 164 ± 79.5 µM with osteosarcoma HOS cells (Homo sapiens, HOS) and 91 ± 19.4 µM in series [1] (setting [6]). In addition, the CC50 at 24 h in [2] (setting [7]) was 161 ± 22.9 µM.

On to `[BH3-][P+](OC(C)C)(N(CC)CC)C(C)(C)O` (stereo not drawn) [Compound 3, 1-hydroxy-1-methylethylphosphonous acid-borane isopropyl ester N,N-diethylamide], for which the IC50 turned out to be 226 ± 3.56 µM with osteosarcoma HOS cells (Homo sapiens, HOS) and 79.6 ± 13.6 µM in series [1] (setting [6]). For the same molecule, the CC50 at 24 h in series [2] (setting [7]) is 224 ± 95.3 µM.

As for `[BH3-][P+](OC(C)C)(OC(C)C)C(Nc1ccc(O)cc1)c1ccccc1` (stereo not drawn) [Compound 5], the IC50 came out at 79.5 ± 22.9 µM in the series with osteosarcoma HOS cells (Homo sapiens, HOS) and 96 ± 3.3 µM in series [1] (setting [6]). Further, the 50% cytotoxic concentration (CC50) at 24 h in series [2] (normal colon fibroblasts CCD-18Co cells, read-out: CC50 (µM ± SD) CCD-18Co) came to 62.5 ± 36.2 µM; in [2] (setting [7]), 43.9 ± 3.5 µM.

Regarding `[BH3-][P+](OC(C)C)(OC(C)C)C(C)(C)O` [Compound 2, 1-hydroxy-1-methylethylphosphonous acid-borane diisopropyl ester], the IC50 in the series on osteosarcoma HOS cells (Homo sapiens, HOS) is 344 ± 142 µM; in series [1] (setting [6]) it was 83.4 ± 18.4 µM. In series [2] (setting [7]), the CC50 at 24 h came to 182 ± 28.1 µM.

Consider `[NH2][Pt]([NH2])([Cl])[Cl]` [CDDP, cisplatin, reference compound], for which the IC50 with osteosarcoma HOS cells turned out to be 3.5 ± 0.92 µM; in series [1] (proliferation), 12.8 ± 3.7 µM. Further, the “increase in active caspase 3 vs untreated cells” value in series [3] was “approx. 13%”; in series [4], “approx. 9%”. The “increase in active caspase 9 vs untreated cells” value in series [5] is reported as “approx. 10%”.

For the molecule `O=C(O)CNC(=O)C(CS)Cc1ccccc1` (stereo not drawn) [thiorphan, N-[2-(mercaptomethyl)-1-oxo-3-phenylpropyl]glycine], the entries for the “decrease in NEP activity” value at NEP (neprilysin) (0.0005 µM), on NEP (neprilysin) (0.005 µM) and at NEP (neprilysin) (0.01 µM) were “approx. 30%”, “approx. 50%” and around 60%, respectively. Also, the effect on proliferation entry in the series with HOS cells (100 µM) was “did not affect cell proliferation”; in the series on Saos-2 cells (Saos-2, 100 µM), “did not affect cell proliferation”. Further, the decrease in proliferation result was “approx. 30%” in the series with HOS cells (200 µM); around 40% with HOS cells (500 µM); 35% in the series with Saos-2 cells (Saos-2, 200 µM); 60% in the series with Saos-2 cells (Saos-2, 500 µM).

As for `[BH3-][P+](OC(C)C)(OC(C)C)C(Nc1ccc(Br)cc1)c1ccc(OC)cc1` (stereo not drawn) [Compound 7, [1-(N-p-bromophenylamino)]-1-(p-anisyl)methylphosphonous acid-borane diisopropyl ester], the IC50 in the series on osteosarcoma HOS cells (Homo sapiens, HOS) was 51.2 ± 18.6 µM; in [1] (setting [6]) it was 109 ± 15.8 µM. Moreover, in [2] (setting [7]), the CC50 at 24 h is 214 ± 39.5 µM.

These data come from paper PMC9223658, “New Borane-Protected Derivatives of α-Aminophosphonous Acid as Anti-Osteosarcoma Agents: ADME Analysis and Molecular Modeling, In Vitro Studies on Anti-Cancer Activities, and NEP Inhibition as a Possible Mechanism of Anti-Proliferative Activity” (International Journal of Molecular Sciences, 2022).
